Holding throughout (assay type): functional
In one experiment the test system is 786-0. The experiment in a line: The compound was tested for its cytotoxic activity against the following renal cancer cell lines 786-0. The settings on record: Homo sapiens.
The next experiment relates to Breast carcinoma cell. The experiment in a line: The compound was tested for its growth inhibitory activity against breast cancer cell line. Particulars: Homo sapiens.
For the next experiment, the system named is CNS carcinoma cell. The experiment can be described thus: The compound was tested for its growth inhibitory activity against CNS cancer cell line. Particulars: Homo sapiens.
Another experiment concerns Colon carcinoma cell. The experiment can be described thus: The compound was tested for its growth inhibitory activity against colon cancer cell line. Particulars: Homo sapiens.
A further experiment concerns EKVX. The experiment in a line: The compound was tested for its cytotoxic activity against the following non small cell lung cancer cell lines EKVX. The settings on record: Homo sapiens.
The subject of another experiment is HCT-15. The experiment in a line: The compound was tested for its cytotoxic activity against the following colon cancer cell lines HCT-15. The settings on record: Homo sapiens.
A further experiment concerns HL-60. The experiment in a line: The compound was tested for its growth inhibitory activity against […] cancer cell line HL60-TB. The settings on record: Homo sapiens.
The test system of the next experiment is Hs-578T. The experiment in a line: The compound was tested for its cytotoxic activity against the following breast cancer cell lines HS 578T. Particulars: Homo sapiens.
Another experiment concerns IGROV-1. The experiment can be described thus: The compound was tested for its cytotoxic activity against the following ovarian cancer cell lines IGROVI. Particulars: Homo sapiens.
Another experiment concerns K562. The experiment can be described thus: The compound was tested for its cytotoxicity against the following leukemia cell line K-562. The settings on record: Homo sapiens.
Experiment [1] concerns Panel leukemia (Carcinoma cell lines). The experiment can be described thus: The compound was tested for its growth inhibitory activity against leukemia cell line. Particulars: Homo sapiens.
For a further experiment, the system named is Lung cancer cell line. The experiment can be described thus: The compound was tested for its growth inhibitory activity against non small cell lung cancer cell line. Particulars: Homo sapiens.
The subject of the next experiment is NCI-H522. The experiment can be described thus: The compound was tested for its cytotoxic activity against the following non small cell lung cancer cell lines NCI-H522. Particulars: Homo sapiens.
A further experiment deals with NCI/ADR-RES. The experiment in a line: The compound was tested for its cytotoxic activity against the following breast cancer cell lines NCI / ADR-RES. The settings on record: Homo sapiens.
A further experiment has as its system Ovarian carcinoma cell. The experiment in a line: The compound was tested for its growth inhibitory activity against ovarian cancer cell line. Particulars: Homo sapiens.
The subject of the next experiment is Prostatic carcinoma cell. The experiment in a line: The compound was tested for its growth inhibitory activity against prostate cancer cell line. Particulars: Homo sapiens.
The test system of another experiment is Renal cancer cell line. The experiment can be described thus: The compound was tested for its growth inhibitory activity against renal cancer cell line. Particulars: Homo sapiens.
For a further experiment, the system named is SF-268. The experiment in a line: The compound was tested for its cytotoxic activity against the following CNS cancer cell lines SF-268. Particulars: Homo sapiens.
The subject of the next experiment is SW-620. The experiment in a line: The compound was tested for its cytotoxic activity against the following colon cancer cell lines SW-620. Particulars: Homo sapiens.
In another experiment the test system is SF-295. The experiment can be described thus: The compound was tested for its cytotoxic activity against the following CNS cancer cell lines SF-295. Particulars: Homo sapiens.
The next experiment concerns SK-OV-3. The experiment can be described thus: The compound was tested for its cytotoxic activity against the following ovarian cancer cell lines SK-OV-3. The settings on record: Homo sapiens.
The test system of another experiment is UO-31. The experiment in a line: The compound was tested for its cytotoxic activity against the following renal cancer cell lines UO-31. Particulars: Homo sapiens.
Experiment [2] is described as follows: Mean value for over all cell lines tested.
The subject of a further experiment is Melanoma cell. The experiment can be described thus: The compound was tested for its growth inhibitory activity against melanoma, human cancer cell line.

In the case of `Br.Br.Br.Br.O=C1c2cccc3cccc(c23)C(=O)N1CCCNCCCNCCCCNCCCNCCCN1C(=O)c2cccc3cccc(c23)C1=O`, the 50% growth inhibitory concentration (GI50) worked out at 0.555 µM in the experiment on 786-0; 4.49 µM with Breast carcinoma cell; 4.07 µM in the experiment on CNS carcinoma cell; 4.23 µM with Colon carcinoma cell; 4.5 µM with EKVX; 12.8 µM in the experiment with HCT-15. In addition, the GI50 came to 0.033 µM in the experiment on HL-60; 0.63 µM with Hs-578T; 0.856 µM in the experiment on IGROV-1; 3.6 µM with K562; 1.43 µM in experiment [1]; 3.51 µM in the experiment with Lung cancer cell line. Moreover, the GI50 with NCI-H522 was 0.825 µM; in the experiment on NCI/ADR-RES, 15.1 µM; with Ovarian carcinoma cell, 6.12 µM; in the experiment with Prostatic carcinoma cell, 3.46 µM; in the experiment on Renal cancer cell line, 7.43 µM; in the experiment on SF-268 it was 0.722 µM. The concentration for 50% growth inhibition (GI50) stood at 1.16 µM with SW-620; 5.35 µM with SF-295; 10.8 µM with SK-OV-3; 10.8 µM in the experiment with UO-31; 4.04 µM in the experiment with Melanoma cell. In [2], this compound registered a mean GI50 of 4.31 µM.

In the case of `Br.Br.O=C1c2cccc3cccc(c23)C(=O)N1CCCNOCCONCCCN1C(=O)c2cccc3cccc(c23)C1=O`, the 50% growth inhibitory concentration (GI50) in the experiment with Breast carcinoma cell was found to be 77.6 µM; in the experiment on CNS carcinoma cell, 65.9 µM; with Colon carcinoma cell it was 73.2 µM; in experiment [1] it was 25.7 µM; in the experiment on Lung cancer cell line it was 72.7 µM; with Ovarian carcinoma cell it was 81 µM. Also, the GI50 in the experiment with Prostatic carcinoma cell was found to be 77.5 µM; in the experiment on Renal cancer cell line it was 65.4 µM; with Melanoma cell, 78 µM. The mean GI50 in experiment [2] came to 68.5 µM.

As to `Br.Br.Br.O=C1c2cccc3cccc(c23)C(=O)N1CCCNCCCCNCCCNCCCN1C(=O)c2cccc3cccc(c23)C1=O`, the concentration for 50% growth inhibition (GI50) with 786-0 worked out at 0.185 µM; with Breast carcinoma cell, 3.49 µM; in the experiment on CNS carcinoma cell, 1.16 µM; with Colon carcinoma cell, 2.35 µM; in the experiment on EKVX, 1.05 µM; in the experiment on HCT-15, 10.9 µM. Further, the concentration for 50% growth inhibition (GI50) in the experiment on HL-60 is 0.156 µM; with Hs-578T it was 0.044 µM; with IGROV-1 it was 0.267 µM; with K562, 1.17 µM; in experiment [1], 0.25 µM; with Lung cancer cell line it was 0.58 µM. The 50% growth inhibitory concentration (GI50) in the experiment with NCI-H522 amounted to 0.03 µM; in the experiment on NCI/ADR-RES, 19.5 µM; in the experiment with Ovarian carcinoma cell, 0.79 µM; in the experiment with Prostatic carcinoma cell, 0.46 µM; in the experiment with Renal cancer cell line, 2.49 µM; in the experiment on SF-268, 0.111 µM. Moreover, the GI50 in the experiment with SW-620 stood at 0.449 µM; with SF-295 it was 4.78 µM; with SK-OV-3, 1.31 µM; with UO-31 it was 10.6 µM; with Melanoma cell, 1.17 µM. In [2], the mean GI50 turned out to be 1.42 µM.

For `Br.Br.O=C1c2cccc3cccc(c23)C(=O)N1CCCNCCCCNCCCN1C(=O)c2cccc3cccc(c23)C1=O`, the GI50 in the experiment on 786-0 was determined as 0.024 µM; with Breast carcinoma cell, 2.26 µM; in the experiment on CNS carcinoma cell, 0.29 µM; in the experiment with Colon carcinoma cell it was 0.59 µM; with EKVX it was 1.37 µM; in the experiment with HCT-15 it was 2.66 µM. The GI50 came out at 0.222 µM in the experiment on HL-60; 0.065 µM in the experiment on Hs-578T; 0.082 µM with IGROV-1; 0.012 µM in the experiment with K562; 0.08 µM in [1]; 0.53 µM in the experiment with Lung cancer cell line. Also, the 50% growth inhibitory concentration (GI50) stood at 0.013 µM in the experiment on NCI-H522; 13.1 µM with NCI/ADR-RES; 0.34 µM in the experiment on Ovarian carcinoma cell; 0.13 µM in the experiment on Prostatic carcinoma cell; 0.57 µM in the experiment with Renal cancer cell line; 0.029 µM with SF-268. Also, the GI50 in the experiment on SW-620 was determined as 0.037 µM; in the experiment on SF-295, 0.488 µM; in the experiment on SK-OV-3, 0.722 µM; in the experiment on UO-31, 1.91 µM; in the experiment on Melanoma cell, 0.44 µM. This compound also registered a mean GI50 in experiment [2] of 0.58 µM.

As usually defined, the GI50 is the concentration that inhibits growth by half. A lower GI50 goes with greater sensitivity of the cells.
